US20110071173A1, “IMIDAZOQUINAZOLINE DERIVATIVES AS ANAGRELIDE ANALOGUES FOR THE TREATMENT OF MYELOPROLIFIC DISEASES AND THROMBOTIC DISEASES” (Shire LLC, priority 2008, published 2011)

How the values were obtained:
[1] = cited from earlier work
[2] = tested on: TPO-induced megakaryocytopoiesis; conditions: cited from earlier work
[3] = tested on: human phosphodiesterase III (PDE III); assay: PDE III inhibition; format: biochemical; conditions: versus anagrelide
[4] = pharmacokinetics in vivo (half-life, exposure, first pass); design: species or system human; conditions: after anagrelide treatment
[5] = tested on: erythroid or myelomonocytic differentiation; conditions: stimulated by erythropoietin or granulocyte-macrophage colony-stimulating factor; cited from earlier work
[6] = molecular target: human phosphodiesterase III (PDE III); conditions: cited from earlier work

potency as PDE III inhibitor relative to anagrelide [3]	exposure in vivo relative to parent drug [4]	SMILES	half-life ([1]; typical)	potency in inhibition of megakaryocytopoiesis relative to parent drug ([2]; versus anagrelide)	first pass effect ([1]; in vivo)	effect on erythroid or myelomonocytic differentiation [5]	IC50 [6]	IC50 ([2]; in vitro, human megakaryocytopoiesis, read-out: estimated IC50, inhibition of TPO-induced megakaryocytopoiesis)
over 40 fold	2-3 fold	O=C1NC2=Nc3ccc(Cl)c(Cl)c3CN2C1O (stereo not drawn) [3-hydroxyanagrelide]	2.5 h	no more potent than the parent drug				
		O=C1CN2Cc3c(ccc(Cl)c3Cl)N=C2N1 [Anagrelide, 6,7-dichloro-1,5-dihydroimidazo[2,1-b]-quinazolin-2(3H)-one]			> 50%	does not affect	~29 nM	~26 nM
		Cc1[nH]c(=O)c(C#N)cc1-c1ccncc1 [milrinone]					170 to 350 nM	
